Values quoted from earlier work in patent US12409239B2, “Particles for use in hyperpolarization” (BEACON MRI LTD, priority 2021, dated 2025).

Settings: background statement

## CC(=O)C(=O)O [pyruvate/pyruvic acid, pyruvic acid]
  T1: about a minute
